Experimental data from US4971967A, “Quinolinecarboxylic acid derivatives, antibacterial compositions and use” (Kanebo Ltd, priority 1989, dated 1990).
Converted amounts (≈) assume the structure as drawn. Structures can show the parent of a compound that is named as a salt. Where two headings read alike, the source gives them in different places.

Experiments:
[1] = tested on: Staphylococcus aureus FDA 209P JC-1; experiment: Antibacterial activity (MIC), S. aureus FDA 209P JC-1; type: cell-based; conditions: FDA209P; Staphylococcus aureus FDA 209P JC-1, Gram +; read-out: Minimum inhibitory concentration (MIC)
Method in brief: (§1)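 Dissolve compound in 0.1 N aqueous sodium hydroxide or sterilized distilled water to 5000 μg/ml; dilute to a 1000 μg/ml standard; measure MIC as prescribed by the Japan Society of Chemotherapy.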

[2] = tested on: Staphylococcus aureus IID 803; experiment: Antibacterial activity (MIC), S. aureus IID 803; type: cell-based; conditions: IID803; Staphylococcus aureus IID 803, Gram +; read-out: Minimum inhibitory concentration (MIC)
Method in brief: as §1

[3] = tested on: Staphylococcus epidermidis IAM-1296; experiment: Antibacterial activity (MIC), S. epidermidis IAM-1296; type: cell-based; conditions: Staphylococcus epidermidis, IAM1296, Staphylococcus epidermidis IAM-1296, Gram +; read-out: Minimum inhibitory concentration (MIC)
Method in brief: as §1

[4] = tested on: Streptococcus faecalis IID 682; experiment: Antibacterial activity (MIC), Streptococcus faecalis IID 682; type: cell-based; conditions: Enterococcus faecalis, IID682, Streptococcus faecalis IID 682, Gram +; read-out: Minimum inhibitory concentration (MIC)
Method in brief: as §1

[5] = tested on: Bacillus subtilis ATCC 6633; experiment: Antibacterial activity (MIC), Bacillus subtilis ATCC 6633; type: cell-based; conditions: Bacillus subtilis, ATCC6633, Bacillus subtilis ATCC 6633, Gram +; read-out: Minimum inhibitory concentration (MIC)
Method in brief: as §1

[6] = tested on: Micrococcus luteus ATCC 9341; experiment: Antibacterial activity (MIC), Micrococcus luteus ATCC 9341; type: cell-based; conditions: ATCC9341; Micrococcus luteus ATCC 9341, Gram +; read-out: Minimum inhibitory concentration (MIC)
Method in brief: as §1

[7] = tested on: Escherichia coli NIHJ JC-2; experiment: Antibacterial activity (MIC), E. coli NIHJ JC-2; type: cell-based; conditions: NIHJJC2; Escherichia coli NIHJ JC-2, Gram -; read-out: Minimum inhibitory concentration (MIC)
Method in brief: as §1

[8] = tested on: Escherichia coli KC-14; experiment: Antibacterial activity (MIC), E. coli KC-14; type: cell-based; conditions: KC14; Escherichia coli KC-14, Gram -; read-out: Minimum inhibitory concentration (MIC)
Method in brief: as §1

[9] = tested on: Klebsiella pneumoniae PCI-602; experiment: Antibacterial activity (MIC), Klebsiella pneumoniae PCI-602; type: cell-based
Method in brief: as §1

[10] = tested on: Salmonella typhimurium IID 971; experiment: Antibacterial activity (MIC), Salmonella typhimurium IID 971; type: cell-based; conditions: Salmonella enterica; Salmonella typhimurium IID 971, Gram -; read-out: Minimum inhibitory concentration (MIC)
Method in brief: as §1

[11] = tested on: Shigella sonnei EW-33; experiment: Antibacterial activity (MIC), Shigella sonnei EW-33; type: cell-based; conditions: Shigella sonnei, EW33, Shigella sonnei EW-33, Gram -; read-out: Minimum inhibitory concentration (MIC)
Method in brief: as §1

[12] = tested on: Serratia marcescens IAM 1184; experiment: Antibacterial activity (MIC), Serratia marcescens IAM 1184; type: cell-based; conditions: Serratia marcescens, IAM1184, Serratia marcescens IAM 1184, Gram -; read-out: Minimum inhibitory concentration (MIC)
Method in brief: as §1

[13] = tested on: Pseudomonas aeruginosa IFO 3445; experiment: Antibacterial activity (MIC), P. aeruginosa IFO 3445; type: cell-based; conditions: Pseudomonas aeruginosa, IFO3445, Pseudomonas aeruginosa IFO 3445, Gram -; read-out: Minimum inhibitory concentration (MIC)
Method in brief: as §1

[14] = tested on: Pseudomonas aeruginosa NCTC 10490; experiment: Antibacterial activity (MIC), P. aeruginosa NCTC 10490; type: cell-based; conditions: Pseudomonas aeruginosa, NCTC10490, Pseudomonas aeruginosa NCTC 10490, Gram -; read-out: Minimum inhibitory concentration (MIC)
Method in brief: as §1

[15] = tested on: Pseudomonas aeruginosa E-2; experiment: Antibacterial activity (MIC), P. aeruginosa E-2; type: cell-based; conditions: E2; Pseudomonas aeruginosa E-2, Gram -; read-out: Minimum inhibitory concentration (MIC)
Method in brief: as §1

[16] = tested on: Morganella morganii IFO 3848; experiment: Antibacterial activity (MIC), Morganella morganii IFO 3848; type: cell-based; conditions: Morganella morganii, IFO3848, Morganella morganii IFO 3848, Gram -; read-out: Minimum inhibitory concentration (MIC)
Method in brief: as §1

[17] = tested on: Proteus vulgaris OX-19; experiment: Antibacterial activity (MIC), Proteus vulgaris OX-19; type: cell-based; conditions: OX19; Proteus vulgaris OX-19, Gram -; read-out: Minimum inhibitory concentration (MIC)
Method in brief: as §1

[18] = tested on: Proteus mirabilis IFO 3849; experiment: Antibacterial activity (MIC), Proteus mirabilis IFO 3849; type: cell-based; conditions: IFO3849; Proteus mirabilis IFO 3849, Gram -; read-out: Minimum inhibitory concentration (MIC)
Method in brief: as §1

[19] = tested on: Enterobacter aerogenes ATCC 13048; experiment: Antibacterial activity (MIC), Enterobacter aerogenes ATCC 13048; type: cell-based; conditions: Klebsiella aerogenes, ATCC13048; Enterobacter aerogenes ATCC 13048, Gram -; read-out: Minimum inhibitory concentration (MIC)
Method in brief: as §1

[20] = tested on: Enterobacter cloacae 963; experiment: Antibacterial activity (MIC), Enterobacter cloacae 963; type: cell-based; conditions: Enterobacter cloacae, 963, Enterobacter cloacae 963, Gram -; read-out: Minimum inhibitory concentration (MIC)
Method in brief: as §1

[21] = tested on: Citrobacter freundii NIHJ 10018-68; experiment: Antibacterial activity (MIC), Citrobacter freundii NIHJ 10018-68; type: cell-based; conditions: Citrobacter freundii, NIHJ10018, Citrobacter freundii NIHJ 10018-68, Gram -; read-out: Minimum inhibitory concentration (MIC)
Method in brief: as §1

[22] = tested on: Acinetobacter calcoaceticus AC 54; experiment: Antibacterial activity (MIC), Acinetobacter calcoaceticus AC 54; type: cell-based; conditions: AC54; Acinetobacter calcoaceticus AC 54, Gram -; read-out: Minimum inhibitory concentration (MIC)
Method in brief: as §1

[23] = tested on: Staphylococcus aureus IID 803; experiment: Effect on treatment of general infectious disease, S. aureus IID 803 (Experiment 4); type: in vivo, ddY male mice infected with Staphylococcus aureus; conditions: IID803, 168 h, oral, 1 h after i.p. infection, 2.1×10^7 CFU/mouse, survival after one week
Experimental: (§2) The test microorganisms were subjected to standing culture in Trypto-Soya Agar "Nissui" (made by Nissui Seiyaku K.K., Japan) at 37° C. for 16 to 18 hours. The culture was then diluted with PBS (Dulbecco's phosphate buffered saline) and mixed with an equivalent amount of 10% (w/v) Mucin (BACTO MUCIN BACTERIOLOGICAL, made by Difco Co.) to prepare a microorganism solution. The thus prepared microorganism solution (0.5 ml each) was intraperitoneally inoculated to ddY male mice (5 weeks age, weighing 25-28 g, 5 mice in each group), to infect the animals. One hour after the infection, the compound (A) or (J) of the present invention or the known compound (X) suspended in 1% (w/v) aqueous gum arabic or the known compound (Y) dissolved in sterilized distilled water was orally adiministered to mice.
(§3) The mice were daily observed for one week, and from the survival number of mice after one week, the 50% effective dose (ED50) was calculated by Weil method.
Staphylococcus aureus IID 803 (2.1×10^7 CFU/mouse)
(§4) The procedure of Experiment 3 was repeated except that ddY male mice weighing 24 to 28 g were employed.

[24] = tested on: Pseudomonas aeruginosa E-2; experiment: Effect on treatment of general infectious disease, P. aeruginosa E-2 (Experiment 4); type: in vivo, ddY male mice infected with Pseudomonas aeruginosa; conditions: E2, 168 h, oral, 1 h after i.p. infection, 3.4×10^4 CFU/mouse, survival after one week
Experimental: as §2, §3
Pseudomonas aeruginosa E-2 (3.4×10^4 CFU/mouse)
as §4

[25] = Acute toxicity (LD50) (Experiment 6); conditions: mouse, in vivo; oral, mice fasted 18 hours, observed for a week
Experimental: (§5) The compound (O) or (P) of the present invention was suspended in sterilized distilled water to prepare a suspension. The suspension was orally adminstered to ddY male mice (5 weeks age, weighing 20 to 25 g, 5 mice in each group), which had been fasted for 18 hours.

[26] = tested on: infection; experiment: Protective effects against infection (Experiments 3 and 4); type: in vivo, ddY male mice; conditions: result in words
Experimental: as §2, §3, §4

[27] = Low toxicity (Experiments 5 and 6); type: in vivo, ddY male mice; conditions: result in words
Experimental: The compound (A) or (J) of the present invention was suspended in 1% (w/v) aqueous gum arabic to prepare a suspension in concentration of 100 mg/ml. The suspension was orally administered to ddY male mice (5 weeks age, weighing 20 to 25 g, 5 mice in each group), which had been fasted for 18 hours, at a rate of 2000 mg/kg body weight of the compound (A) or (J).
as §5

[28] = tested on: clinically isolated methicillin resistant Staphylococcus aureus; experiment: MIC against clinically isolated methicillin resistant Staphylococcus aureus; type: cell-based; conditions: 54 strains
Experimental: The compounds (A) and (J) of the present invention and the known compound (X) were dissolved in 0.1 N aqueous sodium hydroxide, and the known compound (Y) in sterilized distilled water, to prepare a solution of 5000 μg/ml in concentration each. The above solutions were then diluted with sterilized distilled water to prepare a standard solution with a concentration of the test compound: 1000 μg/ml each. The test was carried out by a method appointed by Japan Society of Chemotherapy (ibidem) to measure minimum inhibitory concentration (MIC) against 54 strains of clinically isolated methicillin resistant Staphylococcus aureus, from which there were calculated a range of MIC (MICrange) of the test compound against these resistant strains, a minimum concentration for inhibiting the growth of the strains by 50% (MIC50) and a minimum concentration for inhibiting the growth of the strains by 90% (MIC90).

[29] = tested on: Staphylococcus aureus IID 803; experiment: Effect on treatment of general infectious disease, S. aureus IID 803 (Experiment 3); type: in vivo, ddY male mice infected with Staphylococcus aureus; conditions: IID803, 168 h, oral, 1 h after i.p. infection, 5.0×10^7 CFU/mouse, survival after one week
Experimental: Staphylococcus aureus IID 803 (5.0×10^7 CFU/mouse)
as §2, §3

[30] = tested on: Pseudomonas aeruginosa E-2; experiment: Effect on treatment of general infectious disease, P. aeruginosa E-2 (Experiment 3); type: in vivo, ddY male mice infected with Pseudomonas aeruginosa; conditions: E2, 168 h, oral, 1 h after i.p. infection, 3.1×10^4 CFU/mouse, survival after one week
Experimental: Pseudomonas aeruginosa E-2 (3.1×10^4 CFU/mouse)
as §2, §3

CC1CN(c2c(F)cc3c(=O)c(C(=O)O)c4scc5n4c3c2N(C)C5)CCN1C (stereo not drawn) [Compound (O), 9,1-(Methylimino)methano-7-fluoro-8-(3,4-dimethyl-1-piperazinyl)-5-oxo-5H-thiazolo[3,2-a]-quinoline-4-carboxylic acid]
MIC [1]: 0.025 µg/mL (≈ 0.06 µM)
MIC [2]: 0.025 µg/mL (≈ 0.06 µM)
MIC [3]: 0.05 µg/mL (≈ 0.12 µM)
MIC [4]: 0.1 µg/mL (≈ 0.24 µM)
MIC [5]: 0.0125 µg/mL (≈ 0.03 µM)
MIC [6]: 0.39 µg/mL (≈ 0.936 µM)
MIC [7]: 0.05 µg/mL (≈ 0.12 µM)
MIC [8]: 0.05 µg/mL (≈ 0.12 µM)
MIC ([9]; PCI602, Klebsiella pneumoniae PCI-602, Gram -, read-out: Minimum inhibitory concentration (MIC)): 0.006 µg/mL (≈ 0.0144 µM)
MIC [10]: 0.2 µg/mL (≈ 0.48 µM)
MIC [11]: 0.05 µg/mL (≈ 0.12 µM)
MIC [12]: 0.39 µg/mL (≈ 0.936 µM)
MIC [13]: 1.56 µg/mL (≈ 3.75 µM)
MIC [14]: 0.78 µg/mL (≈ 1.87 µM)
MIC [15]: 0.78 µg/mL (≈ 1.87 µM)
MIC [16]: 0.2 µg/mL (≈ 0.48 µM)
MIC [17]: 0.025 µg/mL (≈ 0.06 µM)
MIC [18]: 0.39 µg/mL (≈ 0.936 µM)
MIC [19]: 0.1 µg/mL (≈ 0.24 µM)
MIC [20]: 0.1 µg/mL (≈ 0.24 µM)
MIC [21]: 0.39 µg/mL (≈ 0.936 µM)
MIC [22]: 0.025 µg/mL (≈ 0.06 µM)
ED50 [23]: 2.8 mg/kg
ED50 [24]: 9.4 mg/kg
LD50 at 168 h [25]: 1410 mg/kg
protective effects against infection [26]: excellent protective effects against infection
toxicity [27]: low toxicity

CN1CCN(c2c(F)cc3c(=O)c(C(=O)O)c4scc5n4c3c2OC5)CC1 [Compound (Y), 9,1-Epoxymethano-7-fluoro-8-(4-methyl-1-piperazinyl)-5-oxo-5H-thiazolo[3,2-a]quinoline-4-carboxylic acid hydrochloride, reference compound]
MIC [1]: 0.2 µg/mL
MIC [2]: 0.2 µg/mL
MIC [3]: 0.39 µg/mL
MIC [4]: 0.78 µg/mL
MIC [5]: 0.1 µg/mL
MIC [6]: 1.56 µg/mL
MIC [7]: 0.1 µg/mL
MIC [8]: 0.1 µg/mL
MIC ([9]; Klebsiella pneumoniae, PCI602, read-out: Minimum inhibitory concentration (MIC)): 0.025 µg/mL
MIC [10]: 0.05 µg/mL
MIC [11]: 0.05 µg/mL
MIC [12]: 0.39 µg/mL
MIC [13]: 1.56 µg/mL
MIC [14]: 0.78 µg/mL
MIC [15]: 0.78 µg/mL
MIC [16]: 0.1 µg/mL
MIC [17]: 0.05 µg/mL
MIC [18]: 0.2 µg/mL
MIC [19]: 0.1 µg/mL
MIC [20]: 0.1 µg/mL
MIC [21]: 0.2 µg/mL
MIC [22]: 0.2 µg/mL
MIC [28]: 0.05 to 0.39 µg/mL
MIC50 ([28]; minimum concentration for inhibiting growth of the strains by 50%): 0.1 µg/mL
MIC90 ([28]; minimum concentration for inhibiting growth of the strains by 90%): 0.2 µg/mL
ED50 [29]: 11.7 mg/kg
ED50 [30]: 11.7 mg/kg
